Drawing on BindingDB's records for doi:10.1021/jm800043g (Amgen, 2008), this text covers IC50 for three molecules.

The structures appear in SMILES notation. pIC50: −log10 of the molar value.

The assay addresses Hepatocyte growth factor receptor (Homo sapiens, UniProt P08581). In words: HTRF Kinase Inhibition Assay. To be noted: pH 7.4; 22 °C. The procedure: In vitro kinase assays were done to establish IC50 values against recombinant enzymes using homogeneous time-resolved fluorescence (HTRF) assay. Molecules were tested in a 10-point serial dilution using an ATP concentration of two thirds Km values that were determined for the enzymes and calculated using the Eadie-Hofstee and Lineweaver-Burke methods. The fluorescence ratios were read on a Rubystar instrument (BMG labtech Inc.).

In turn, `COc1ccc2c(OCc3nnc4ccc(-c5cccs5)nn34)ccnc2c1` [7-methoxy-4-{[6-(thiophen-2-yl)-[1,2,4]triazolo[4,3-a]pyridazin-3-yl]methoxy}quinoline] gave a pIC50 of 8.70. With `COc1ccc2c(OCc3nnc4ccc(-c5cc(C)cs5)nn34)ccnc2c1` [7-methoxy-4-{[6-(4-methylthiophen-2-yl)-[1,2,4]triazolo[4,3-a]pyridazin-3-yl]methoxy}quinoline] the figure was 9.00. Under `COc1ccc2c(OCc3nnc4ccc(-c5ccsc5)nn34)ccnc2c1` [7-methoxy-4-{[6-(thiophen-3-yl)-[1,2,4]triazolo[4,3-a]pyridazin-3-yl]methoxy}quinoline] stands 8.40.
